# US20090220604A1, “AMINO ACIDS IN MICELLE PREPARATION” (ANGIOTECH INTERNATIONAL AG, priority 2002, published 2009)
# Test: Recovery of paclitaxel added to mixtures after heating to 55° C. for 1 hour (reverse phase HPLC with UV detection)
# Format: physicochemical
# Experimental: The desirability of removing unreacted starting materials and/or acidic reaction by-products can be seen by reference to the data in Table 1. […] According to the data, when paclitaxel is combined with a diblock copolymer having up to 2% residual monomer and up to 0.2 μmol/mg acid content (expressed as the number of protons titrated in a solution prepared by dissolving 1 mg of diblock copolymer in water), after heating, only 95% of the paclitaxel initially added to the mixture could be recovered, as quantified using a reverse phase HPLC assay with UV detection and a taxane optimized C18 column.
compound,measurement,setting,value
CC(=O)O[C@H]1C(=O)[C@@]2(C)[C@H]([C@H](OC(=O)c3ccccc3)[C@]3(O)C[C@H](OC(=O)[C@H](O)[C@@H](NC(=O)c4ccccc4)c4ccccc4)C(C)=C1C3(C)C)[C@]1(OC(C)=O)CO[C@@H]1C[C@@H]2O [paclitaxel],Paclitaxel recovered after heating,combined with diblock copolymer having up to 2% residual monomer and up to 0.2 μmol/mg acid content,95%
same,Paclitaxel recovered after heating,"combined with methoxypolyethylene glycol, no measured acidic components and no DL-lactide monomer",99%
same,Paclitaxel recovered after heating,diblock copolymer with greatly reduced quantities of residual monomer and acidic components,98%
